Source: patent US20240285548A1, “AGENT FOR PREVENTION AND/OR TREATMENT OF COGNITIVE IMPAIRMENT” (NATIONAL CEREBRAL AND CARDIOVASCULAR CENTER, priority 2022, published 2024)

What was measured:
[1] = test system: patients with asymptomatic moderate or severe carotid artery stenosis/occlusion; experiment: Adverse events during long-term resveratrol intake; format: in vivo, human; conditions: Example 2, 30 mg/day
Description: The baseline mean total MoCA scores were 23.6±3.6 in the non-RES group and 23.7±3.6 in the RES group. Further, the mean total ADAS-Cog scores were 14.6±5.4 in the non-RES group and 15.8±7.2 in the RES group. The mean observation periods were 244.8±86.9 and 221.2±61.9 days, respectively (p=0.18). The baseline scores were under the category of mild cognitive impairment (MCI) (Table 4).
To identify the reason associated with significant improvements in the visuospatial cognitive function, executive function, and memory in the RES group, cerebral blood flow was measured. Initially, the cerebral blood flow change in each entire hemisphere was analyzed. […] To examine the changes in detail, the cerebral blood flow was analyzed in terms of the frontal lobe, basal ganglia, and thalamus, which govern the visuospatial cognitive and executive functions, and memory. Longitudinally, long-term resveratrol intake was associated with a significant increase in cerebral blood flow in the right frontal lobe (non-RES group: 0.001±0.037, RES group: 0.019±0.033; p=0.027)). […] Therefore, long-term resveratrol intake may contribute not only to improvement of cognitive function but also to increase in cerebral blood flow.

[2] = test system: patients with asymptomatic moderate or severe carotid artery stenosis/occlusion; experiment: 15O-gas PET: cerebral blood flow, cerebral oxygen metabolic rate, cerebral oxygen uptake rate; format: in vivo, human; design: Cerebral blood flow change: entire right hemisphere / Cerebral blood flow change: entire left hemisphere / Cerebral blood flow change: right frontal lobe / Cerebral blood flow change: right callosomarginal artery area / Cerebral blood flow change: left callosomarginal artery area / Cerebral blood flow change: left lenticular nucleus / Cerebral blood flow change: left thalamus: unit not given here; conditions: for β, resveratrol intake vs cerebral blood flow change: Frontal circulation area / β, resveratrol intake vs cerebral blood flow change: Left callosomarginal artery area / β, resveratrol intake vs cerebral blood flow change: Left lenticular nucleus / β, resveratrol intake vs cerebral blood flow change: Right callosomarginal artery area / β, resveratrol intake vs cerebral blood flow change: Right precentral artery / β, resveratrol intake vs cerebral blood flow change: Thalamus, Left / β, resveratrol intake vs cerebral blood flow change: Thalamus, Right: 79 patients, linear regression
Experimental: Subjects were patients with asymptomatic moderate or severe carotid artery stenosis/occlusion who visited the National Cerebral and Cardiovascular Center in Japan from July 2020 to August 2021 and who were taking or not taking trans-resveratrol in an amount of 30 mg/day. The inclusion criteria were as follows: (1) patients with asymptomatic moderate or severe carotid artery stenosis/occlusion who presented with a peak systolic velocity of 130 cm/s or more at a stenotic lesion on carotid ultrasonography (corresponding to a stenotic diameter of >50%) and who underwent test (2) and/or (3); (2) patients who underwent cognitive function tests (Alzheimer's Disease Assessment Scale-Cognitive subscale 13 (ADAS-Cog) and Montreal Cognitive Assessment (MoCA)) longitudinally twice; (3) patients who also underwent ^15O-gas positron emission tomography (PET) longitudinally twice in a similar manner. The primary outcome is a comparison of the amounts of change in ADAS-Cog during the observation period (differential analysis). The secondary outcomes are (1) a comparison of the amounts of change in MoCA during the observation period (differential analysis), and (2) a comparison of the amounts of change in cerebral blood flow on ^15O -gas PET (differential analysis). This study was initiated after receiving approval from the Research Ethics Review Committee of the National Cerebral and Cardiovascular Center (Research Project Number: R20113). All PET images were anatomically standardized using linear and nonlinear transformations with SPM2 to ensure that the brain images of all patients had the same anatomical format, and the cerebral blood flow was quantified using 3DSRT (PDRadiopharma Inc., Tokyo, Japan). Each hemisphere was divided into twelve ROI segments, grouped according to the arterial supply: callosomarginal artery area, pericallosal artery area, precentral artery area, central artery area, angular artery area, parietal lobe, temporal lobe, occipital lobe, hippocampus, lenticular nucleus, thalamus, and cerebellum. The frontal circulation areas were defined to be the callosomarginal artery area, pericallosal artery area, precentral artery area, and central artery area. In quantifying the relative cerebral blood flow, counts under each ROI were normalized to an average cerebral blood flow count within the bilateral cerebellum. […] Using 3D-SRT (FUJIFILM RI Pharma, Tokyo, Japan), the difference in the amount of change was analyzed (for the RES group, the difference between the cerebral blood flow before RES administration (relative to cerebellum) and the cerebral blood flow after RES administration (relative to cerebellum); for the non-RES group, the cerebral blood flow at intervals of 6 months to 1 year (relative to cerebellum)). […] In Example 1 above, the 82 subject patients included patients who were tested for both change in cognitive function and change in cerebral blood flow, as well as patients who were tested for only either change in cognitive function or change in cerebral blood flow. Therefore, based on the above results, the same analysis as in Example 1 was performed again on 79 patients who were tested for both change in cognitive function and change in cerebral blood flow from among the 82 patients. To identify the reason associated with significant improvements in the visuospatial cognitive function, executive function, and memory in the RES group, cerebral blood flow was measured. Initially, the cerebral blood flow change in each entire hemisphere was analyzed. […] To examine the changes in detail, the cerebral blood flow was analyzed in terms of the frontal lobe, basal ganglia, and thalamus, which govern the visuospatial cognitive and executive functions, and memory. Longitudinally, long-term resveratrol intake was associated with a significant increase in cerebral blood flow in the right frontal lobe (non-RES group: 0.001±0.037, RES group: 0.019±0.033; p=0.027)). […]

[3] = test system: carotid artery occlusion model mice; conditions: NPL 3; cited from earlier work
[4] = test system: patients with asymptomatic moderate or severe carotid artery stenosis/occlusion; experiment: Alzheimer's Disease Assessment Scale-Cognitive subscale 13 (ADAS-Cog), change during observation period; format: in vivo, human; conditions: for β, resveratrol intake vs ADAS-Cog delayed recall change / β, resveratrol intake vs ADAS-Cog memory domain change / β, resveratrol intake vs ADAS-Cog total change: 79 patients, linear regression
Experimental: (§1) Subjects were patients with asymptomatic moderate or severe carotid artery stenosis/occlusion who visited the National Cerebral and Cardiovascular Center in Japan from July 2020 to August 2021 and who were taking or not taking trans-resveratrol in an amount of 30 mg/day. The inclusion criteria were as follows: (1) patients with asymptomatic moderate or severe carotid artery stenosis/occlusion who presented with a peak systolic velocity of 130 cm/s or more at a stenotic lesion on carotid ultrasonography (corresponding to a stenotic diameter of >50%) and who underwent test (2) and/or (3); (2) patients who underwent cognitive function tests (Alzheimer's Disease Assessment Scale-Cognitive subscale 13 (ADAS-Cog) and Montreal Cognitive Assessment (MoCA)) longitudinally twice; (3) patients who also underwent ^15O-gas positron emission tomography (PET) longitudinally twice in a similar manner. The primary outcome is a comparison of the amounts of change in ADAS-Cog during the observation period (differential analysis). The secondary outcomes are (1) a comparison of the amounts of change in MoCA during the observation period (differential analysis), and (2) a comparison of the amounts of change in cerebral blood flow on ^15O -gas PET (differential analysis). This study was initiated after receiving approval from the Research Ethics Review Committee of the National Cerebral and Cardiovascular Center (Research Project Number: R20113). In Example 1 above, the 82 subject patients included patients who were tested for both change in cognitive function and change in cerebral blood flow, as well as patients who were tested for only either change in cognitive function or change in cerebral blood flow. Therefore, based on the above results, the same analysis as in Example 1 was performed again on 79 patients who were tested for both change in cognitive function and change in cerebral blood flow from among the 82 patients. […] The baseline mean total MoCA scores were 23.6±3.6 in the non-RES group and 23.7±3.6 in the RES group. Further, the mean total ADAS-Cog scores were 14.6±5.4 in the non-RES group and 15.8±7.2 in the RES group. The mean observation periods were 244.8±86.9 and 221.2±61.9 days, respectively (p=0.18). The baseline scores were under the category of mild cognitive impairment (MCI) (Table 4). For the 79 patients, the amount of change in MoCA and ADAS-Cog scores was examined to investigate changes in cognitive function associated with administration of resveratrol. […] According to ADAS-Cog, a significant association was found with cognitive function improvement in the RES group in terms of delayed recall (0.5±1.6 VS. −0.9±1.8; p=0.001), memory domain (0.4±3.3 VS. −1.6±3.1; p=0.007), and total score (0.5±3.7 vs. −1.5±3.4; p=0.019). Therefore, after adjusting for age, gender, hypertension, diabetes, dyslipidemia, and coronary artery disease, a multivariate linear regression model analysis was performed. Resveratrol intake was an independent predictor of improvement in spatial cognitive and executive functions (β=0.26, 95% confidence interval [CI]: 0.062-1.15, p=0.03) and memory (memory domain: β=−0.26, 95% CI: −3.23 to −0.15, p=0.032; delayed recall: β=−0.37, 95% CI: −2.16 to −0.54, p=0.001) (Table 5). Accordingly, resveratrol may have contributed to improvement in the visuospatial cognitive function, executive function, and memory.

[5] = test system: patients with asymptomatic moderate or severe carotid artery stenosis/occlusion; experiment: Montreal Cognitive Assessment (MoCA), change during observation period; format: in vivo, human; conditions: for β, resveratrol intake vs MoCA visuospatial cognitive function/executive function change: 79 patients, linear regression
Experimental: as §1

[6] = test system: human Alzheimer's patients; conditions: 500 mg of resveratrol; NPL 5; cited from earlier work
[7] = Example 1, relative to cerebellum, before vs after RES administration, 30 mg/day
[8] = Example 2, multivariable analysis
[9] = Example 2, univariable analysis
[10] = Example 2, RES group n = 36 of 79 patients, 30 mg/day
[11] = Example 1, RES group 37 of 82 patients, 30 mg/day
[12] = Example 2, multivariate analysis

Oc1ccc(/C=C/c2cc(O)cc(O)c2)cc1 [resveratrol, 3,4′, 5-trihydroxy-trans-stilbene]
Adverse events [1]: no adverse events observed
Cerebral oxygen uptake rate ([2]; Example 1, 30 mg/day): no association
Cerebral oxygen metabolic rate ([2]; Example 1, all areas, 30 mg/day): tendency for an association between RES intake and an increase in the cerebral oxygen metabolic rate
Cerebral blood flow in other areas ([2]; Example 1, areas other than those of Table 3, relative to cerebellum): tendency for an association between RES intake and an increase in the cerebral blood flow
Amount of change in cerebral blood flow: Left callosomarginal artery area [2, 7]: 0.171 ± 0.42
Amount of change in cerebral blood flow: Left putamen [2, 7]: 0.19 ± 0.57
Amount of change in cerebral blood flow: Left thalamus [2, 7]: 0.449 ± 0.90
Amount of change in cerebral blood flow: Right callosomarginal artery area [2, 7]: 0.179 ± 0.34
Amount of change in cerebral blood flow: Right frontal lobe [2, 7]: 0.215 ± 0.35
Amount of change in cerebral blood flow: Right thalamus [2, 7]: 0.393 ± 0.85
β, resveratrol intake vs cerebral blood flow change: Frontal circulation area [2, 8]: 0.25
β, resveratrol intake vs cerebral blood flow change: Left callosomarginal artery area [2, 8]: 0.27
β, resveratrol intake vs cerebral blood flow change: Left lenticular nucleus [2, 8]: 0.31
β, resveratrol intake vs cerebral blood flow change: Right callosomarginal artery area [2, 8]: 0.29
β, resveratrol intake vs cerebral blood flow change: Right precentral artery [2, 8]: 0.25
β, resveratrol intake vs cerebral blood flow change: Thalamus, Left [2, 8]: 0.29
β, resveratrol intake vs cerebral blood flow change: Thalamus, Right [2, 8]: 0.23
β, resveratrol intake vs cerebral blood flow change: Frontal circulation area [2, 9]: 0.25
β, resveratrol intake vs cerebral blood flow change: Left callosomarginal artery area [2, 9]: 0.24
β, resveratrol intake vs cerebral blood flow change: Left lenticular nucleus [2, 9]: 0.29
β, resveratrol intake vs cerebral blood flow change: Right callosomarginal artery area [2, 9]: 0.28
β, resveratrol intake vs cerebral blood flow change: Right precentral artery [2, 9]: 0.25
β, resveratrol intake vs cerebral blood flow change: Thalamus, Left [2, 9]: 0.29
β, resveratrol intake vs cerebral blood flow change: Thalamus, Right [2, 9]: 0.24
Cerebral blood flow change: entire left hemisphere [2, 10]: 0.014±0.031
Cerebral blood flow change: entire right hemisphere [2, 10]: 0.016±0.032
Cerebral blood flow change: left callosomarginal artery area [2, 10]: 0.017±0.042
Cerebral blood flow change: left lenticular nucleus [2, 10]: 0.033±0.06
Cerebral blood flow change: left thalamus [2, 10]: 0.045±0.090
Cerebral blood flow change: right callosomarginal artery area [2, 10]: 0.018±0.034
Cerebral blood flow change: right frontal lobe [2, 10]: 0.019±0.033
Cerebral blood flow change: right precentral artery area [2, 10]: 0.021±0.035
Cerebral blood flow change: right thalamus [2, 10]: 0.039±0.85
Autophagy [3]: activation of autophagy
Cognitive function [3]: improvement in cognitive function
Oxidative stress-induced nerve damage [3]: reduced oxidative stress-induced nerve damage
Amount of change in ADAS-Cog: Total [4, 11]: −1.48 ± 3.4
Amount of change in ADAS-Cog: delayed recall [4, 11]: −0.89 ± 1.7
Amount of change in ADAS-Cog: memory domain [4, 11]: −1.65 ± 3.0
β, resveratrol intake vs ADAS-Cog delayed recall change [4, 12]: −0.37
β, resveratrol intake vs ADAS-Cog memory domain change [4, 12]: −0.26
β, resveratrol intake vs ADAS-Cog total change [4, 12]: −0.18
β, resveratrol intake vs ADAS-Cog delayed recall change ([4]; Example 2, univariate analysis): −0.37
β, resveratrol intake vs ADAS-Cog memory domain change ([4]; Example 2, univariate analysis): −0.30
β, resveratrol intake vs ADAS-Cog total change ([4]; Example 2, univariate analysis): −0.26
Amount of change in ADAS-Cog: delayed recall [4, 10]: −0.9±1.8
Amount of change in ADAS-Cog: memory domain [4, 10]: −1.6±3.1
Amount of change in ADAS-Cog: total score [4, 10]: −1.5±3.4
Amount of change in MoCA: Executive function/spatial cognitive function [5, 11]: 0.35 ± 1.0
β, resveratrol intake vs MoCA visuospatial cognitive function/executive function change ([5]; Example 2, multivariate analysis adjusted for age, gender, hypertension, diabetes, dyslipidemia, coronary artery disease): 0.26
β, resveratrol intake vs MoCA visuospatial cognitive function/executive function change ([5]; Example 2, univariate analysis): 0.257
Amount of change in MoCA: visuospatial cognitive and executive functions [5, 10]: 0.4±0.9
Amount of change in total MoCA score [5, 10]: 0.4±2.6
Effect in human Alzheimer's patients [6]: no effect was observed
